The target of one assay is Nitric oxide synthase 3 (Homo sapiens, UniProt P29474). Nature of the assay: Inhibition of recombinant human eNOS expressed in baculovirus-infected Sf9 cells assessed as conversion of [3H]-larginine to [3H]-L-citrulline preincubated for 15 mins measured after 45 mins by liquid scintillation counting.
The target of assay [1] is Nitric oxide synthase, inducible (Homo sapiens, UniProt P35228). The assay can be described thus: Inhibition of recombinant human iNOS expressed in baculovirus-infected Sf9 cells assessed as conversion of [3H]-larginine to [3H]-L-citrulline preincubated for 15 mins measured after 45 mins by liquid scintillation counting.
Nitric oxide synthase, inducible, sequence (P35228 whole entry, looked up): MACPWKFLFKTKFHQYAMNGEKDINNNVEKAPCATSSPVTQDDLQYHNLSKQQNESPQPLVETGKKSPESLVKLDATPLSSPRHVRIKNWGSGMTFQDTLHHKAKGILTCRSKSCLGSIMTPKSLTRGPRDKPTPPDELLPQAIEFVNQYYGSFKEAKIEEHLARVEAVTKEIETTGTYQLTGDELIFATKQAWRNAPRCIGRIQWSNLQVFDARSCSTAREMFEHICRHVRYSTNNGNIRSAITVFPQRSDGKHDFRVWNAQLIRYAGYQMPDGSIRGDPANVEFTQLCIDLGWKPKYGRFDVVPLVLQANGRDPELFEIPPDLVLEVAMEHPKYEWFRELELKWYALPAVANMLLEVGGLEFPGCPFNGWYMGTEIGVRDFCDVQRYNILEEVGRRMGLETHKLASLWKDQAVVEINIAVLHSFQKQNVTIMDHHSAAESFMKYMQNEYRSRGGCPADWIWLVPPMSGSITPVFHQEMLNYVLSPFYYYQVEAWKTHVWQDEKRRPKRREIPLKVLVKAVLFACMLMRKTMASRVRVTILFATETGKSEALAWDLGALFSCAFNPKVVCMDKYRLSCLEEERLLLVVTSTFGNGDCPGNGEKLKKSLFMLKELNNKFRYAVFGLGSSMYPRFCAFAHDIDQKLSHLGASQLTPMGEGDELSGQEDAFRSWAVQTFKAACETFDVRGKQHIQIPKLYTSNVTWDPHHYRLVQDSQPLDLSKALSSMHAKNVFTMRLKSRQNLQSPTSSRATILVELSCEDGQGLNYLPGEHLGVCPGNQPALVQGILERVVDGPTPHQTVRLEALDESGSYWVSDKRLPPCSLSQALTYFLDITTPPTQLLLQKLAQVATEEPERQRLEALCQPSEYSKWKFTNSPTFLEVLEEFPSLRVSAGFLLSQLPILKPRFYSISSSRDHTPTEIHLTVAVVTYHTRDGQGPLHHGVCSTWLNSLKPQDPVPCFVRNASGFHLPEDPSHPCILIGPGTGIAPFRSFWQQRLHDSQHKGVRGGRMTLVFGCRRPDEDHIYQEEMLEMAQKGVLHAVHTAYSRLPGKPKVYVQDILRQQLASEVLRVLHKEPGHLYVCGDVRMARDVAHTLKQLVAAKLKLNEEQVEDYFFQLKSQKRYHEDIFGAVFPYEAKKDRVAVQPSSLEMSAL
In a further assay the target is Nitric oxide synthase 1 (Homo sapiens, UniProt P29475). Nature of the assay: Inhibition of recombinant human nNOS expressed in baculovirus-infected Sf9 cells assessed as conversion of [3H]-larginine to [3H]-L-citrulline preincubated for 15 mins measured after 45 mins by liquid scintillation counting.
Nitric oxide synthase 1, sequence (P29475 whole entry): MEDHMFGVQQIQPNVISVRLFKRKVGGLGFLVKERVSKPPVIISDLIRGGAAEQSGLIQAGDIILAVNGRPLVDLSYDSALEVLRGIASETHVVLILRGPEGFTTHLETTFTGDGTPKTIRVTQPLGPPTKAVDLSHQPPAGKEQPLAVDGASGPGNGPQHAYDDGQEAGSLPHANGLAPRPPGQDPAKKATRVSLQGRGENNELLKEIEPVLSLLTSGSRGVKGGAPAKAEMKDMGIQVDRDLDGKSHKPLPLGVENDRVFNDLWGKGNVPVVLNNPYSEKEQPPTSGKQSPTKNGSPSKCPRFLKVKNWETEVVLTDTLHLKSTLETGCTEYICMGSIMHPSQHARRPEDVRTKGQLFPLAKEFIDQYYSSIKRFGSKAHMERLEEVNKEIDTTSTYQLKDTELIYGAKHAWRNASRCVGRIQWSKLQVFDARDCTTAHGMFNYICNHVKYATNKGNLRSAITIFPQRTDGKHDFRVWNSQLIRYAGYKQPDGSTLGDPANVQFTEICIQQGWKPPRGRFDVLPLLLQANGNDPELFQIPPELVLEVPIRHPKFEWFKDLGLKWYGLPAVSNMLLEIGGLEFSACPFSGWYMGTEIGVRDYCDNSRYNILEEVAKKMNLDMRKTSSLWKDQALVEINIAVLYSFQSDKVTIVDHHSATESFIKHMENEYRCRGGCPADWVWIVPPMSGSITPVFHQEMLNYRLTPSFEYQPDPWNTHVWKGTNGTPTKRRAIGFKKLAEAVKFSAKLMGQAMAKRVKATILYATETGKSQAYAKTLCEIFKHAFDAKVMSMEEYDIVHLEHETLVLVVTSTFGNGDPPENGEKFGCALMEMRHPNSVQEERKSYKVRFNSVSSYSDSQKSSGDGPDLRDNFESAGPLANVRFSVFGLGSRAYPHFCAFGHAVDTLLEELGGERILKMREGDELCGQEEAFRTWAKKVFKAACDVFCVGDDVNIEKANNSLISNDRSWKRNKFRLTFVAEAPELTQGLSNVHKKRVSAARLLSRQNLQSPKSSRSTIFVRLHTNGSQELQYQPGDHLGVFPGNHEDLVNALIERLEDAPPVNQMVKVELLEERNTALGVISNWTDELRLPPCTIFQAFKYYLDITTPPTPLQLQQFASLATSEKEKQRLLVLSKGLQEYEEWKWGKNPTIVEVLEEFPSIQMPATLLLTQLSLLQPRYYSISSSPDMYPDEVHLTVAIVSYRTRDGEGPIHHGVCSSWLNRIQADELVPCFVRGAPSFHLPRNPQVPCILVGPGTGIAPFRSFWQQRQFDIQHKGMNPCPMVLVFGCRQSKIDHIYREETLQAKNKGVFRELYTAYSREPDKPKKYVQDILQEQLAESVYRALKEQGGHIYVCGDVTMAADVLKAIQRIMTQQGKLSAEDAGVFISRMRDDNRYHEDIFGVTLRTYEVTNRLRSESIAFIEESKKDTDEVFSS
Assay [2] deals with Substance-P receptor (Homo sapiens) (UniProt P25103). To be noted: U-373MG ATCC.
Substance-P receptor (Homo sapiens), sequence (P25103 whole entry): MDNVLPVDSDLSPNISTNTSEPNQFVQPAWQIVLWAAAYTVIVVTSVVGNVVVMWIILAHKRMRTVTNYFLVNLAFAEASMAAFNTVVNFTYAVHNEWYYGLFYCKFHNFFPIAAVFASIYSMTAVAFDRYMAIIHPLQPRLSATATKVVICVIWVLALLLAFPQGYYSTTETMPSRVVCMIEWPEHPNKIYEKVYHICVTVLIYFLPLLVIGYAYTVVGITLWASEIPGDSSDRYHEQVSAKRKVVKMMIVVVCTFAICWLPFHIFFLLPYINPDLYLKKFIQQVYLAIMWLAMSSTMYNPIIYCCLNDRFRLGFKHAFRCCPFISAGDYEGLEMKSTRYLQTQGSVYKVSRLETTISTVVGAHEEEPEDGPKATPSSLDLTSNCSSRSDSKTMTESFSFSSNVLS
Description: Displacement of [125I]BH-SP from NK1 receptor in human U-373MG cells at 10 uM after 60 mins

Broadly, the IC50 is the concentration that gives 50% inhibition. One may read the inhibition as how much of the control response was suppressed. Low readings indicate little suppression, high ones strong suppression.

Nitric oxide synthase 3, sequence (P29474 whole entry, looked up): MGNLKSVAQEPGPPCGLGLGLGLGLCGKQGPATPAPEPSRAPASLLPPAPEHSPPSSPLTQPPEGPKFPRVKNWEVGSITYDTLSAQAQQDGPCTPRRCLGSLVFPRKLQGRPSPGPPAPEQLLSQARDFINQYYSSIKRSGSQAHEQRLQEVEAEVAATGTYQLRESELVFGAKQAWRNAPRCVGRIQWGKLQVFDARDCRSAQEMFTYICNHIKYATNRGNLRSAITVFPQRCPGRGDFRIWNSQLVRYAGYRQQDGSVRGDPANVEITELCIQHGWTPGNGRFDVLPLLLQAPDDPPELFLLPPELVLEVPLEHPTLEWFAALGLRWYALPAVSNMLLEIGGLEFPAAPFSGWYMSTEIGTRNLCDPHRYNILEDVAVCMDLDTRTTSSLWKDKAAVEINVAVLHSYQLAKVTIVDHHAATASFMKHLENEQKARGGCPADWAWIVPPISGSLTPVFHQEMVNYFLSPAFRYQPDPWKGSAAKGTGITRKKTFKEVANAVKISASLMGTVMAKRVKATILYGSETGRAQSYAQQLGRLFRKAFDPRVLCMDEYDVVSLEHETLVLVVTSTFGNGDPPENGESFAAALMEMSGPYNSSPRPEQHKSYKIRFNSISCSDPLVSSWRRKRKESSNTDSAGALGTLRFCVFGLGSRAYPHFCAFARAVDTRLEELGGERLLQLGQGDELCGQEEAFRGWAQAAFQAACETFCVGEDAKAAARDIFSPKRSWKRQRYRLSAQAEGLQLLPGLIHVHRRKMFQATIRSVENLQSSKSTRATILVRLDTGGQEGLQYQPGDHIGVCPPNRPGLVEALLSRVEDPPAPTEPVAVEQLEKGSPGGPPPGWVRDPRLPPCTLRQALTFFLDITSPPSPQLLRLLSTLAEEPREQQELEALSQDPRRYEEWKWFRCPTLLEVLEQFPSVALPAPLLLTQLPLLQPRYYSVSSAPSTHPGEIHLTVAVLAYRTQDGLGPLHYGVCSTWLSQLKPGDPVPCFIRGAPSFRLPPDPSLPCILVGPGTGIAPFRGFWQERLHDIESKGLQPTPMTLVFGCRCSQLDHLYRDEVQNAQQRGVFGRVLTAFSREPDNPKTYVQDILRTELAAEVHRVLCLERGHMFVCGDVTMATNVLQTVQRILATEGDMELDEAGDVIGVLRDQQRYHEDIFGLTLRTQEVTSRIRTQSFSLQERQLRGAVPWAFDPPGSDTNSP

With `CC1CC(N2CCc3cc(NC(=N)c4cccs4)ccc32)CCN1` (cis isomer), the IC50 is 124000 nM at Nitric oxide synthase 3, 1170 nM in assay [1] and 690 nM on Nitric oxide synthase 1.
For `N=C(Nc1ccc2c(c1)CCN2C(=O)CN1CCCC1)c1cccs1` the same measures were 10500 nM, 770 nM and 620 nM.
For `CC1CC(N2CCc3cc(NC(=N)c4cccs4)ccc32)CCN1` (single isomer, unassigned; (+)) the same measures were 51700 nM, 1800 nM and 910 nM.
For `CN(C)CCN1CCc2cc(NC(=N)c3cccs3)ccc21` the same measures were 11400 nM, 4070 nM and 40 nM.
With `CNC1CCC(N2CCc3cc(NC(=N)c4cccs4)ccc32)CC1` (trans isomer), the 50% inhibitory concentration (IC50) stood at 4870 nM in assay [1] and 100 nM on Nitric oxide synthase 1.
For `N=C(Nc1ccc2c(c1)CCN2C1CCNCC1)c1cccs1` [listing 1 of 2 here], the IC50 was determined as 40500 nM on Nitric oxide synthase 3, 415000 nM in assay [1] and 110 nM on Nitric oxide synthase 1.
The corresponding values for `N=C(Nc1ccc2c(c1)CCN2C1CCN(CCO)CC1)c1cccs1` are 39300 nM, 1580 nM and 160 nM.
For `CC1CC(N2CCc3cc(NC(=N)c4cccs4)ccc32)CCN1` (trans isomer), the IC50 is 36700 nM at Nitric oxide synthase 3, 4750 nM in assay [1] and 370 nM at Nitric oxide synthase 1.
For `N=C(Nc1ccc2c(c1)CCN2CCN1CCCC1)c1cccs1` the same measures were 37300 nM, 410 nM and 120 nM.
The corresponding values for `N=C(Nc1ccc2c(c1)CCN2C1CCCNC1)c1cccs1` (racemic) are 94000 nM, 52200 nM and 330 nM.
The corresponding values for `CC1CC(N2CCc3cc(NC(=N)c4cccs4)ccc32)CCN1` (stereo in doubt) are 53700 nM, 1090 nM and 710 nM.
As to `N=C(Nc1ccc2c(c1)CCN2C1CCNCC1)c1cccs1` [listing 2 of 2 here], in assay [2], the inhibition was 12%.
As for `CNC1CCC(N2CCc3cc(NC(=N)c4cccs4)ccc32)CC1` (cis isomer), the IC50 in assay [1] turned out to be 4080 nM; at Nitric oxide synthase 1, 200 nM.
Turning to `N=C(Nc1ccc2c(c1)CCN2CCNCCO)c1cccs1`, the IC50 worked out at 10100 nM at Nitric oxide synthase 3 and 350 nM at Nitric oxide synthase 1.
As to `CN1CCC(N2CCc3cc(NC(=N)c4cccs4)ccc32)CC1`, the half-inhibitory concentration (IC50) at Nitric oxide synthase 3 worked out at 58200 nM; in assay [1] it was 4670 nM; at Nitric oxide synthase 1 it was 200 nM.
